Consider eight compounds from article PMC5742115, “Pharmacophore Modeling and in Silico/in Vitro Screening for Human Cytochrome P450 11B1 and Cytochrome P450 11B2 Inhibitors” (Frontiers in Chemistry, 2017).

Assay [1] addresses T1, Human CYP17 (Homo sapiens, UniProt P05093).
T1 construct: made in house; host or cells: Escherichia coli (5,000 g sediment of the homogenate)
T1 sequence (P05093 1-508): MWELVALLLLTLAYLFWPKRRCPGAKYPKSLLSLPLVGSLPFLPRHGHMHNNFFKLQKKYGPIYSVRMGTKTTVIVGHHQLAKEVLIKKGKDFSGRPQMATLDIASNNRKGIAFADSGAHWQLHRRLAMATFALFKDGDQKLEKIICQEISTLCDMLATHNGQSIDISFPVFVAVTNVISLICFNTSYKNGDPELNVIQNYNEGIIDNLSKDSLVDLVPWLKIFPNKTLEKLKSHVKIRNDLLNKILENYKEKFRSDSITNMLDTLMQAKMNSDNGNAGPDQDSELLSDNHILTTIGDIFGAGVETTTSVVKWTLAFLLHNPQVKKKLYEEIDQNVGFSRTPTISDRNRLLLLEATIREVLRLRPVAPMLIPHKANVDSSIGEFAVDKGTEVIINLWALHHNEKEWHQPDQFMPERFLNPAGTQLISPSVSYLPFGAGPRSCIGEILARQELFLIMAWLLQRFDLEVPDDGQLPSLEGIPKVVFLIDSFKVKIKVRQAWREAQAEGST
Details: method as in Sergejew and Hartmann, 1994. The settings on record: reference inhibitor; ref Sergejew and Hartmann, 1994; cited from earlier work.

The next assay has as its system CYP11B1. The settings on record: Figure 3, training compounds; ref Meredith et al., 2013; read-out: hCYP11B1 IC50; cited from earlier work.
For the next assay, the system named is CYP11B2. The settings on record: Figure 3, training compounds; ref Meredith et al., 2013; read-out: hCYP11B2 IC50; cited from earlier work.
A further assay addresses T2, human CYP11B1 (Homo sapiens, UniProt P15538).
T2 construct: expressed in transfected cells; host or cells: hamster V79MZh cells
T2 sequence (P15538 25-503): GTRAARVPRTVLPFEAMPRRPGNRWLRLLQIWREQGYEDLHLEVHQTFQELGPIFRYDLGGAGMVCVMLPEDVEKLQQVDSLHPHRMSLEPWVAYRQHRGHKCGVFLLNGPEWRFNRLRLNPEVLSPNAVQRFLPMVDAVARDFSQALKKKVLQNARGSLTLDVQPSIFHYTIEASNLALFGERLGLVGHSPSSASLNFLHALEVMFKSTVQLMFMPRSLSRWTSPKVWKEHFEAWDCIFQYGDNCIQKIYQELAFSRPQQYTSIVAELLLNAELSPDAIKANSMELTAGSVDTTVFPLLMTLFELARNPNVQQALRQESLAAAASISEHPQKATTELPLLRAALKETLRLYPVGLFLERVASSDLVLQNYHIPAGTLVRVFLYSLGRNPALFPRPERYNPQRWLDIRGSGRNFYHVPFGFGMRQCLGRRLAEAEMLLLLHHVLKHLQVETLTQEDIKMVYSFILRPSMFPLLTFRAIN
The assay is described as follows: CYP11B1 inhibition assay in V79MZh cells. Format: cell-based. The settings on record: for inhibition at 10 µM: at 10 μM concentration, V79MZh cells; for IC50: human CYP11B1 expressed in hamster V79MZh cells, mean of at least three experiments. The procedure:
(§1) The selected potential inhibitors were dissolved in DMSO at a concentration of 10 mM to generate stock solutions. Various aliquots were then made from fresh stock solutions and each aliquot was tested only once.
(§2) The selected hits were evaluated for their inhibition of human CYP11B1 and CYP11B2 enzymes expressed in hamster V79MZh cells. Approximately […] V79MZh cells were cultured in 24-well cell culture plates for 24 h. The area of each well was 1.9 cm^2. The cells were exposed to various concentrations of inhibitor solutions. The reactions were started by incubating the cells with [^3H]11-deoxycorticosterone. The incubation time for CYP11B1 cells was 15–60 and 50–120 min for CYP11B2 cells. The reactions were stopped by extracting the supernatant with cold ethyl acetate at 4°C. Samples were mixed (10 min), and centrifuged (12,500 rpm). The organic (upper) layer was separated into fresh Eppendorf tubes and dried. The steroids were re-dissolved in methanol-water (65–35%) and were analyzed by radio-HPLC (Denner et al., [1995a]; Ehmer et al., [2002]).

In the next assay the target is T3, human CYP11B2 (Homo sapiens, UniProt P19099).
T3 construct: expressed in transfected cells; host or cells: hamster V79MZh cells
T3 sequence (P19099 25-503): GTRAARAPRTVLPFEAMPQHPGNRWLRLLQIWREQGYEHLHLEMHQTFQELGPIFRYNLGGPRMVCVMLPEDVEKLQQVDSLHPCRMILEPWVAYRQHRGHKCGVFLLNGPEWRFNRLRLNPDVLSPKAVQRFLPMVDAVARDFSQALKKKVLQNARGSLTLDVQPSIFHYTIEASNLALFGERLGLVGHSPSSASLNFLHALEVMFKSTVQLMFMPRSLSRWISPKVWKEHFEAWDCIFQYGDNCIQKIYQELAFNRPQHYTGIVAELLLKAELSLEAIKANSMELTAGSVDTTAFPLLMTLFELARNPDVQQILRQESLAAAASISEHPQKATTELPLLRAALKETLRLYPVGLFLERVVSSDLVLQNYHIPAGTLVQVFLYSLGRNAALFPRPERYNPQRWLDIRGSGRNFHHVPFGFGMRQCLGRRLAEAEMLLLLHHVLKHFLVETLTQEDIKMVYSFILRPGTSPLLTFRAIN
The assay is described as follows: CYP11B2 inhibition assay in V79MZh cells. The settings on record: for inhibition at 10 µM: at 10 μM concentration, V79MZh cells; for IC50: human CYP11B2 expressed in hamster V79MZh cells, mean of at least three experiments. It counts as cell-based. The procedure: as §1, §2

In assay [2] the target is T1, Human CYP17. Nature of the assay: CYP17 inhibition assay. The settings on record: at 10 μM concentration; for CYP17 inhibition: human CYP17 from Escherichia coli, n.i. = not inhibited. It counts as biochemical. The procedure:
The inhibition of CYP17 was investigated using the 5,000 g sediment of homogenized Escherichia coli (Ehmer et al., [2000]). Human CYP17 along with NADPH-P450 reductase was used to perform the assay as described previously. The incubation time for the reaction was 30 min at 37°C. The reaction was started by adding [^3H]-progesterone, and was quenched with 1 M HCl. The reaction mixture was extracted twice with ethyl acetate at 4°C in order to avoid impurities. The samples were dried, prepared with methanol, and analyzed with radio-HPLC. DSMO was used as negative control.

Several values for one entry are separate records, joined by “and”; a condition that tells them apart may be missing. Identical values can stand only once.

Broadly, the IC50 is the concentration at which inhibition is half-maximal. A word on the inhibition: it is the relative decrease from the control value, in per cent. A higher inhibition goes with a strong effect.

Take `C[C@]12CC[C@H](O)CC1=CC[C@@H]1[C@@H]2CC[C@]2(C)C(c3cccnc3)=CC[C@@H]12` [Abiraterone]: the 50% inhibitory concentration (IC50) at Human CYP17 [1] was 100 nM.

In the case of `N#Cc1ccc([C@@H]2CCCCc3cncn32)c(-c2ccc(F)cc2)c1` [Compound 4], the IC50 was 0.4 nM with CYP11B1 and 0.3 nM in the assay with CYP11B2.

Regarding `N#Cc1ccc(C2(C(=O)OCc3ccc(F)cc3)CCc3cncn32)c(Cl)c1` (stereo not drawn) [Compound 5], the values for the IC50 in the assay on CYP11B1 and with CYP11B2 were less than 0.1 nM and 3.8 nM, respectively.

As for `CC(C)CC(=O)Nc1ccc(Cc2ccncc2)cc1` [Compound 8], at human CYP11B1, the inhibition at 10 µM was greater than 50% and inhibition was half-maximal at 3040 ± 720 nM (IC50). Besides, at human CYP11B2, the inhibition at 10 µM was greater than 50% and the 50% inhibitory concentration (IC50) stood at 2770 ± 480 nM. For the same compound, on Human CYP17 [2], the inhibition at 10 µM was no more than 3% and the CYP17 inhibition result was “n.i.^e”.

At human CYP11B1, `CC(OCc1ccc(F)cc1)n1ccnc1` (stereo not drawn) [Compound 9] had an inhibition at 10 µM greater than 50% and a half-maximal inhibitory concentration (IC50) of 210 ± 40 nM. In addition, at human CYP11B2, the inhibition at 10 µM is greater than 50% and the IC50 is 80 ± 5 nM. Further, at Human CYP17 [2], the inhibition at 10 µM is no more than 3% and the CYP17 inhibition entry is listed as “n.i”.

As to `COc1cc(Cl)c(S(=O)(=O)n2ccnc2)cc1Cl` [Compound 10], on human CYP11B1, the inhibition at 10 µM was greater than 50% and the IC50 came to 130 ± 20 nM. On human CYP11B2, this compound showed an inhibition at 10 µM greater than 50% and an IC50 of 110 ± 20 nM. At Human CYP17 [2], the inhibition at 10 µM is no more than 3% and the CYP17 inhibition result is “n.i”.

`CN(C)C(c1ccccc1)c1nnnn1-c1ccc(Cl)cc1` (stereo not drawn) [Compound 11]: on human CYP11B1 (from IC50 values), the “selectivity factor for CYP11B1 inhibition over CYP11B2” value came out at 6. The concentration for half-maximal inhibition (IC50) against human CYP11B1 was 2500 nM and 2520 nM; at human CYP11B2, 15600 ± 8450 nM.

In the case of `c1ccc2c(-c3nn4cnnc4s3)cccc2c1` [Compound 12], the inhibition at 10 µM against human CYP11B1 is 33 ± 6%. The IC50 against human CYP11B2 is 1100 nM and 1120 nM. At Human CYP17 [2], the inhibition at 10 µM is no more than 3% and the CYP17 inhibition result is given as “n.i”.
